Results taken from patent US20180267019A1, “USE OF PEPTIDE HYDROGEL SCAFFOLDS FOR THREE-DIMENSIONAL THROUGHPUT DRUG DISCOVERY” (UNIVERSITY OF DELAWARE, priority 2015, published 2018).
One block for each compound: values may come before it.

Assays:
medulloblastoma cells [1] = assay: DMSO tolerance of medulloblastoma cells in hydrogel-cell constructs, 384-well plate; type: cell-based, human
Experimental: Unless noted otherwise, cell viability assays were performed in 384-well plates using the RealTime-Glo™ MT Cell Viability Assay from Promega. For each experiment two stock solutions were prepared. For the first solution, 50 mM HEPES (pH 7.4) buffer was mixed with 0.5 wt % MAX8 (5 mg MAX8 per mL buffer solution for a final 0.25 wt % MAX8 hydrogel construct). The second solution was a cell solution with 11×10^6 per mL of medulloblastoma cells in serum-free DMEM. The two stock solutions were thoroughly mixed 1:1 to create a cell/gel mixture and 4 μL of the mixture was added per well to a white 384 well assay plate (Corning) containing 41 μL culture medium per well. The cells were allowed to equilibrate for 24 hours before any luminescence was determined. […] The plate was incubated for 60 minutes at 37 C and the luminescence was measured using an Envision Multilevel Reader (Perkin Elmer).
Owing to its unique shear force properties, MAX8-medulloblastoma cell constructs were dispensed at room temperature into 384-well plates (2,000 cells in 4 μL of hydrogel) (Brandtech) with 50 μL of culture medium (DMEM with serum) using a BioTek microplate dispenser. […] 10 μL of the intermediate drug media was then added to the QC plates, and following 48 h of cell culture the cell viability was measured using RealTime-Glo and the previously described method.

medulloblastoma cells [2] = assay: Treatment of MAX8-RGDS-encapsulated medulloblastoma cells and 2D monolayers with vismodegib, cell viability; type: cell-based, human; settings: MAX8-RGDS 3D constructs vs 2D monolayers, 48 hours, FIG. 3B
Experimental: Vismodegib was added into the surrounding tissue culture medium of MAX8 hydrogel-cell constructs after 24 hours of cell seeding at the indicated concentrations. To limit the exposure of cultured cells to dimethyl sulfoxide (DMSO) from stock solutions of test compounds, 3.5 μL of stock solution was diluted in 1 mL of culture medium and then 20 μL of this solution was added to each well using the Janus workstation (PerkinElmer). Following 48 hours of cell culture the cell viability was measured as previously described using RealTime-Glo with a final concentration of 1×.

[3] = test system: human medulloblastoma cells; assay: RealTime-Glo cell viability of medulloblastoma cells encapsulated in MAX8 hydrogel-cell constructs; type: cell-based
Experimental: (§1) Human medulloblastoma cells were propagated in Dulbecco's […] Media (DMEM) supplemented with 10% fetal bovine serum and penicillin-streptomycin-glutamine at 37° C. and 5% CO2 using standard 2D cell culture protocols and tissue-culture treated plastic cell ware. For isolation of primary cerebellar granule precursor (CGP) cells, the cerebellum was dissected from P4-6 pups of C57BL/6 mice and dissociated into single cells using the Papain Dissociation System kit (Worthington Biochemical Corp, Freehold, N.J.). After filtering through a nylon mesh (70 μm pore size), the cells were briefly centrifuged and resuspended in Neurobasal medium supplemented with […] and B27.
In general and unless otherwise indicated, MAX8-cell constructs were prepared as 0.25 wt % MAX8 hydrogels. First, the peptide was dissolved in 50 mM HEPES buffer (pH 7.4) ([…] of hydrogel) and then an equal volume of single cell suspension in DMEM was added and gently mixed. Mixing the MAX8 solution with the culture medium triggers the intramolecular folding of the peptide, resulting in self-assembly into a hydrogel. For additional hydrogels with different concentrations of MAX8, the amount of peptide was adjusted but otherwise the same hydrogel assembly protocol was followed. The same procedures were followed when functionalized MAX8 was used to prepare hydrogel-cell constructs.
Unless noted otherwise, cell viability assays were performed in 384-well plates using the RealTime-Glo™ MT Cell Viability Assay from Promega. For each experiment two stock solutions were prepared. For the first solution, 50 mM HEPES (pH 7.4) buffer was mixed with 0.5 wt % MAX8 (5 mg MAX8 per mL buffer solution for a final 0.25 wt % MAX8 hydrogel construct). The second solution was a cell solution with 11×10^6 per mL of medulloblastoma cells in serum-free DMEM. The two stock solutions were thoroughly mixed 1:1 to create a cell/gel mixture and 4 μL of the mixture was added per well to a white 384 well assay plate (Corning) containing 41 μL culture medium per well. The cells were allowed to equilibrate for 24 hours before any luminescence was determined. 10× RealTime-Glo was added in 5 μL of media to each well already containing 45 μL to a final concentration of 1×. For cell viability assays in 96-well plates, the following volumes were used. 74 μL of DMEM cell media containing serum was added to each well, 16 μL of the previously mentioned 0.25 wt % MAX8 cell/gel construct was then added to each well. 10 μL of 10× RealTime-Glo was added to the wells for a final concentration of 1×. The plate was incubated for 60 minutes at 37 C and the luminescence was measured using an Envision Multilevel Reader (Perkin Elmer).

[4] = test system: primary cerebellar granule precursors (CGPs); assay: RealTime-Glo cell viability of primary cerebellar granule precursor cells encapsulated in MAX8; type: cell-based, C57BL/6 mice; settings: 0.5 wt % MAX8, RealTime-Glo, FIG. 2B
Experimental: as §1
In general and unless otherwise indicated, MAX8-cell constructs were prepared as 0.25 wt % MAX8 hydrogels. First, the peptide was dissolved in 50 mM HEPES buffer (pH 7.4) ([…] of hydrogel) and then an equal volume of single cell suspension in DMEM was added and gently mixed. […]
Unless noted otherwise, cell viability assays were performed in 384-well plates using the RealTime-Glo™ MT Cell Viability Assay from Promega. […] The cells were allowed to equilibrate for 24 hours before any luminescence was determined. […] The plate was incubated for 60 minutes at 37 C and the luminescence was measured using an Envision Multilevel Reader (Perkin Elmer).

[5] = Hydrogel material properties (oscillatory rheology, gelation); type: physicochemical
Experimental: Rheology measurements were performed on an AR G2 rheometer (TA instruments) with a 20 mm stainless steel parallel plate geometry. […] Dynamic time sweep experiments (DTS) were performed to monitor the storage (G′) and loss (G″) modulus as a function of time (6 rad/s frequency, 0.2% strain) for 60 min. For shear-thinning experiments, the samples were subjected to 500 s^−1 steady-state shear for 60 s after which oscillatory measurement was performed at 6 rad/s frequency, 0.2% strain. Subsequently, recovery of the storage (G′) and loss (G″) modulus as a function of time was monitored for 30 min. Dynamic frequency (0.1-100 rad/s frequency, 1.0% strain) sweep experiments were performed to establish the frequency response of the samples. All measurements were performed in triplicates.

[6] = 0.5 wt % hydrogel, RealTime-Glo, FIG. 2C

Compound: C[S+](C)[O-] [DMSO, dimethyl sulfoxide]
DMSO concentration at which medulloblastoma cells were viable (medulloblastoma cells [1]): up to 1%

Compound: CS(=O)(=O)c1ccc(C(=O)Nc2ccc(Cl)c(-c3ccccn3)c2)c(Cl)c1 [vismodegib]
sensitivity (dose response of cell viability), monolayers vs hydrogel cultures (medulloblastoma cells [2]): shift in dose response curves between monolayers and hydrogel cultures

Compound: IKVAVVKVKVKVK-(V^DPPT)-KVEVKVKV-NH2 [MAX8-IKVAV]
proliferation of medulloblastoma cells when compared to MAX8 [3, 6]: increased the proliferation

Compound: RGDSVKVKVKVK-(V^DPPT)-KVEVKVKV-NH2 [MAX8-RGDS]
proliferation of medulloblastoma cells encapsulated in cell constructs, over native MAX8 [3, 6]: 1.4 fold

stiffness of the hydrogel ([5]; controllable by weight percent of the peptide): around 1000 Pa | gelation time ([5]; room temperature, physiological salt concentration and pH): gelates within a minute
Compound: VKVKVKVK-(V^DPPT)-KVEVKVKV-NH2 [MAX8]
viability of medulloblastoma cells within MAX8-cell constructs ([3]; 0.25 or 0.5 wt % MAX8, RealTime-Glo, FIG. 2A): viable for several days | cell proliferation as a function of MAX8 concentration ([3]; 0.25 vs 0.5 wt % MAX8, FIG. 2A): cell proliferation decreased with increasing MAX8 concentrations | viability of primary CGPs within MAX8-cell constructs [4]: viable for several days

Compound: YIGSRVKVKVKVK-(V^DPPT)-KVEVKVKV-NH2 [MAX8-YIGSR]
proliferation of medulloblastoma cells when compared to MAX8 [3, 6]: increased the proliferation
